These results are taken from ChEMBL document CHEMBL1275499, “Glycogen synthase kinase 3 is a potential drug target for African trypanosomiasis therapy” (Antimicrob Agents Chemother, 2008).

Structures are written as SMILES.

Experiment [1] can be described thus: Inhibition of Trypanosoma brucei recombinant MBP-fused GSK-3 short isoform expressed in Escherichia coli by scintillation proximity assay. For orientation: In a scintillation proximity assay essentially only radioactivity close to the scintillant gives light.
In experiment [2] the test system is Trypanosoma brucei. Put plainly: microbe, parasite or virus in culture. The experiment is classed as functional, organism-based. The settings on record: Trypanosoma brucei, 427, 48 h.
Description: Antitrypanosomal activity against blood stream form of Trypanosoma brucei 427 assessed as growth inhibition after 48 hrs by alamar blue assay

For the compound `COc1ccc2c(c1)/C(=C/c1cnc[nH]1)C(=O)N2` [SU-9516], the IC50 in experiment [1] came to 0.352 µM. In experiment [2], the EC50 is 0.18 µM.
For `CN(C)CC(=O)N1CCC(C(=O)Nc2nccc(/C(C#N)=C3\NC(C(C)(C)C)=CS3)n2)CC1` the same measures were 0.03 µM and 0.458 µM.
The corresponding values for `CN1CCC(C(=O)Nc2nccc(/C(C#N)=C3\NC(C(C)(C)C)=CS3)n2)CC1` are 0.03 µM and 0.065 µM.
The corresponding values for `CC(=O)N1CCC(C(=O)Nc2nccc(/C(C#N)=C3\NC(C(C)(C)C)=CS3)n2)CC1` are 0.022 µM and 0.41 µM.
With `CC(C)(C)C1=CS/C(=C(\C#N)c2ccnc(NC(=O)C3CCNCC3)n2)N1`, the IC50 in experiment [1] is 0.046 µM. Also, the half-maximal effective concentration (EC50) in experiment [2] worked out at 0.2 µM.
As to `O=C1Nc2ccc3ncsc3c2/C1=C/Nc1ccc(S(=O)(=O)Nc2ccccn2)cc1`, the 50% inhibitory concentration (IC50) in experiment [1] is 0.001 µM. Moreover, the EC50 in experiment [2] was 0.119 µM.
For `CN(C)CCCC(=O)Nc1nccc(/C(C#N)=C2\NC(C(C)(C)C)=CS2)n1` the same measures were 0.004 µM and 0.05 µM.
For `Nc1nc(Nc2cccc(S(N)(=O)=O)c2)nn1C(=S)Nc1c(F)cccc1F` the same measures were 0.013 µM and 0.02 µM.
For `CC(C)(C)C1=CS/C(=C(\C#N)c2ccnc(NCCCCN3C(=O)CCC3=O)n2)N1` the same measures were 0.168 µM and 0.705 µM.
As for `N#CCCc1ccc2c(c1)-c1[nH]c3ccc([N+](=O)[O-])cc3c1CC(=O)N2` [ALSTERPAULLONE 2], in experiment [1], the IC50 is 0.336 µM. The same compound had a concentration for a half-maximal effect (EC50) in experiment [2] of 0.15 µM.
For `O=C1NC(=O)C(c2ccccc2[N+](=O)[O-])=C1Nc1ccc(O)c(Cl)c1` the same measures were 1 µM and 0.74 µM.

What is called IC50 is the concentration needed to halve the response being measured. As a reminder, the EC50 is the midpoint of the concentration-response curve.
